Here are results for three molecules from patent US5674840A, “Synthetic aglucodalbaheptide antibiotics” (Gruppo Lepetit SpA, priority 1993, dated 1997).

What all share (test): in vitro antibacterial activity, MIC microdilution
For orientation: Broth dilution looks for growth in wells or tubes with falling amounts of substance.

Assay [1] concerns s. aureus clin. isol. (L 561). In kind it is cell-based. To be noted: Iso-Sensitest broth, 0.01% bovine serum albumin, 37° C., 18-24 hours. As to the method: (§1) The in vitro antibacterial activity of the compounds is determined by means of standard […] tests in microtiter. Iso-Sensitest broth (Oxoid) is used for all bacteria except streptococci (Todd-Wewitt broth, Difco) and enterococci (Mueller-Hinton, Difco). Broth cultures are diluted so that the final inoculum was about 5×10^5 cfu/ml (colony forming units per ml). All broth microdilution MICs are performed in the presence of 0.01% bovine serum albumin (Pentax fraction V, Sigma).

Assay [2] concerns Strep. pneumoniae UC41 (L 44). Type of assay: cell-based. The settings on record: Todd-Wewitt broth, 0.01% bovine serum albumin, 37° C., 18-24 hours. As for the experimental part:
as §1

Assay [3] deals with S. epidermidis clin. isol. (L 533). Type of assay: cell-based. To be noted: Iso-Sensitest broth, 0.01% bovine serum albumin, 37° C., 18-24 hours. As to the method:
as §1

Assay [4] has as its system S. haemolyticus clin, isol. (L 602). In kind it is cell-based. The settings on record: Iso-Sensitest broth, 0.01% bovine serum albumin, 37° C., 18-24 hours. As to the method: as §1
The subject of assay [5] is Staph. aurevi Tour (L 165). Type of assay: cell-based. The settings on record: Iso-Sensitest broth, 0.01% bovine serum albumin, 37° C., 18-24 hours. As for the experimental part:
as §1

The test system of assay [6] is S. epidermidis ATCC 12,228 (L 147). Type of assay: cell-based. The settings on record: Iso-Sensitest broth, 0.01% bovine serum albumin, 37° C., 18-24 hours. As for the experimental part: as §1
Assay [7] concerns Enterococcus faecalis ATCC 7,080 (L 149). Type of assay: cell-based. The settings on record: Mueller-Hinton broth, 0.01% bovine serum albumin, 37° C., 18-24 hours. As for the experimental part:
as §1

Assay [8] deals with E. faecalis clin. isol. (L 502). In kind it is cell-based, Enterococcus faecalis. To be noted: for MIC: E. faecalis clin. isol. (L 502), Mueller-Hinton broth, 0.01% bovine serum albumin, 37° C., 18-24 hours. As for the experimental part: as §1
The test system of the next assay is s. aureus Smith (L 819). Type of assay: cell-based. To be noted: Iso-Sensitest broth, 0.01% bovine serum albumin, 37° C., 18-24 hours. As for the experimental part:
(§2) The in vitro antibacterial activity of the compounds is determined by means of standard […] tests in microtiter. Iso-Sensitest broth (Oxoid) is used for all bacteria except streptococci (Todd-[…] broth, Difco) and enterococci (Mueller-Hinton, Difco). Broth cultures are diluted so that the final inoculum was about 5×10^5 cfu/ml (colony forming units per ml).

The test system of assay [9] is Strep. pyogenes C203 (L 49). Type of assay: cell-based. The settings on record: Todd-Wewitt broth, 0.01% bovine serum albumin, 37° C., 18-24 hours. As to the method:
as §2

Consider `N[C@H]1C(=O)N[C@@H]2Cc3ccc(c(Cl)c3)Oc3cc4cc(c3O)Oc3ccc(cc3Cl)[C@@H](O)[C@@H]3NC(=O)[C@H](NC(=O)[C@@H]4NC(=O)[C@@H](NC2=O)c2cc(O)cc(c2)Oc2cc1ccc2O)c1ccc(O)c(c1)-c1c(O)cc(O)cc1[C@@H](C(=O)O)NC3=O` [teicoplanin aglycon], for which the MIC in assay [1] worked out at 0.13 mg/1; in assay [2], 0.13 mg/1; in assay [3], 0.016 mg/1; in assay [4], 0.25 mg/1; in assay [5] it was 0.13 mg/1; in [6], 0.06 mg/1. Further, the MIC in assay [7] is 0.13 mg/1; in assay [8] it was more than 128 mg/1; in the assay on s. aureus Smith (L 819), 0.06 mg/1; in [9], 0.13 mg/1.
With “(L-phenylalanyl)^3 -(D-lysyl)^15 -aglucoteicoplanin dalbaheptide methyl ester”, the MIC in assay [1] is on record as 0.06 mg/1; in [2], 0.13 mg/1; in [3], 0.13 mg/1; in assay [4] it was 0.5 mg/1; in assay [5] it was 0.13 mg/1; in assay [6], 0.13 mg/1. For the same molecule, the MIC in assay [7] is 0.5 mg/1; in assay [8], 16 mg/1; with s. aureus Smith (L 819) it was 0.13 mg/1; in [9], 0.25 mg/1. Further, in [8] (clinical isolate of Enterococcus faecalis), the “activity against a clinical isolate of Enterococcus faecalis (in words)” value is recorded as “surprisingly active”.
Consider teicoplanin, for which the MIC in assay [1] turned out to be 8 mg/1; in assay [2], 0.13 mg/1; in assay [3], 8 mg/1; in assay [4], 32 mg/1; in [5] it was 0.13 mg/1; in assay [6], 8 mg/1. The MIC in assay [7] is reported as 0.13 mg/1; in [8], more than 128 mg/1; in the assay with s. aureus Smith (L 819), 0.25 mg/1; in assay [9], 0.13 mg/1.
